Results as given in ChEMBL document CHEMBL5360538, “Recent updates on 1,2,3-triazole-containing hybrids with in vivo therapeutic potential against cancers: A mini-review” (Eur J Med Chem, 2023).

Tests used:
[1] = test system: NCI-H1650; test: Antiproliferative activity against drug-sensitive human NCI-H1650 cells assessed as inhibition of cell growth incubated for 48 hrs by MTT assay; type: functional, cell-based; details: NCI-H1650, 48 h, pooled result: one value given for 9 cell lines, strains, targets or settings
[2] = test system: KYSE-450; test: Antitumor activity against human KYSE-450 cells xenografted in nu/nu nude mouse model assessed as inhibition of tumor growth at 25 mg/kg, ip administered every day for 15 days relative to control; type: functional; details: KYSE-450, 360 h, time 15 day
[3] = test system: MCF7; test: Antiproliferative activity against drug-sensitive human MCF7 cells assessed as inhibition of cell growth by MTT assay; type: functional, cell-based
[4] = test system: MDA-MB-231; test: Antiproliferative activity against drug-sensitive human MDA-MB-231 cells assessed as inhibition of cell growth by MTT assay; type: functional, cell-based
[5] = test system: BT-474; test: Antiproliferative activity against drug-sensitive human BT-474 cells assessed as inhibition of cell growth by MTT assay; type: functional, cell-based
[6] = test system: SK-BR-3; test: Antiproliferative activity against drug-sensitive human SK-BR-3 cells assessed as inhibition of cell growth by MTT assay; type: functional, cell-based
[7] = Antiproliferative activity against human Tamoxifen-resistant MCF7 cells assessed as inhibition of cell growth by MTT assay; type: functional, cell-based
[8] = Antiproliferative activity against human Trastuzumab-resistant BT-474 cells assessed as inhibition of cell growth by MTT assay; type: functional, cell-based, Trastuzumab-resistant BT-474 cell
[9] = Elimination half life in Albino mouse plasma at 1.0 mg/kg, iv; type: ADME, organism-based; details: read-out: beta t1/2 (converted)
[10] = Plasma clearance in Albino mouse at 1.0 mg/kg, iv; type: ADME, organism-based
[11] = AUC(0 to t) in Albino mouse at 1.0 mg/kg, iv; type: ADME, organism-based; set-up: dose 1 mg/kg, route iv; details: in vivo
[12] = test system: MCF7; test: Antitumor activity against human MCF7 cells xenografted in mouse assessed as tumor growth inhibition by measuring T/C ratio at 25 mg/kg, iv; type: functional
[13] = test system: A549; test: Antiproliferative activity against human A549 cells assessed as inhibition of cell growth by MTT assay; type: functional, cell-based
[14] = test system: SGC-7901; test: Antiproliferative activity against human SGC-7901 cells assessed as inhibition of cell growth by MTT assay; type: functional, cell-based
[15] = test system: A549; test: Antiproliferative activity against human A549 cells assessed as inhibition of cell growth incubated for 24 hrs by MTT assay; type: functional, cell-based; details: A549, 24 h
[16] = animal or person; type: functional; details: Mus musculus, Lewis lung carcinoma, 480 h, route ip, time 20 day
[17] = Antitumor activity against mouse Lewis lung carcinoma cells implanted in C57BL/6J mouse model assessed as inhibition of tumor growth at 5.0 mg/kg, ip administered alternate days for 20 days in presence of 5.0 mg/kg gefitinib relative to control; type: functional; details: 480 h, time 20 day
[18] = test system: PC-9; test: Antiproliferative activity against human PC-9 cells assessed as inhibition of cell growth by MTT assay; type: functional, cell-based
[19] = test system: NCI-H460; test: Antiproliferative activity against human NCI-H460 cells assessed as inhibition of cell growth by MTT assay; type: functional, cell-based
[20] = test system: NCI-H1975; test: Antiproliferative activity against human NCI-H1975 cells assessed as inhibition of cell growth by MTT assay; type: functional, cell-based
[21] = test system: PC-9; test: Antitumor activity against human PC-9 cells xenografted in NSG mouse model assessed as inhibition of tumor growth at 25 mg/kg, ip qd administered every day for 7 consecutive days relative to control; type: functional; details: PC-9, 168 h, time 7 day
[22] = test system: 4T1; test: Antitumor activity against mouse 4T1 cells overexpressing IDO1 implanted in BALB/c mouse model assessed as inhibition of tumor growth at 25 mg/kg, ip qd administered every day for 8 consecutive days and measured after 14 days relative to control; type: functional; details: 4T1, 336 h, time 14 day
[23] = test system: NCI-H211; test: Antiproliferative activity against human NCI-H211 cells assessed as reduction in cell viability by MTS assay; type: functional, cell-based
[24] = test system: MDA-MB-231; test: Antiproliferative activity against human MDA-MB-231 cells assessed as reduction in cell viability by MTS assay; type: functional, cell-based
[25] = test system: MCF7; test: Antiproliferative activity against human MCF7 cells assessed as inhibition of cell growth incubated for 48 hrs by MTT assay; type: functional, cell-based; details: MCF7, 48 h
[26] = test system: LA7; test: Antiproliferative activity against rat LA7 cells assessed as inhibition of cell growth incubated for 48 hrs by MTT assay; type: functional, cell-based; details: LA7, 48 h
[27] = test system: LA7; test: Antitumor activity against rat LA7 cells xenografted in mouse assessed as inhibition of tumor growth at 5 mg/kg, po administered daily for 21 days relative to control; type: functional; details: LA7, 504 h, time 21 day
[28] = test system: KYSE-150 cell line; test: Antiproliferative activity against human KYSE-150 cells assessed as inhibition of cell growth incubated for 72 hrs by MTT assay; type: functional, cell-based; details: KYSE-150, 72 h, pooled result: one value given for 5 cell lines, strains, targets or settings
[29] = test system: A549; test: Antitumor activity against human A549 cells xenografted in Kunming mouse model assessed as inhibition of tumor growth at 20 mg/kg, iv administered twice daily for 2 weeks relative to control; type: functional; details: A549, 336 h
[30] = test system: SGC-7901; test: Antiproliferative activity against human SGC-7901 cells assessed as inhibition of cell growth incubated for 72 hrs by MTT assay; type: functional, cell-based; details: SGC-7901, 72 h
[31] = test system: A549; test: Antiproliferative activity against human A549 cells assessed as inhibition of cell growth incubated for 48 hrs by MTT assay; type: functional, cell-based; details: A549, 48 h
[32] = test system: NCI-H460; test: Antiproliferative activity against human NCI-H460 cells assessed as inhibition of cell growth incubated for 48 hrs by MTT assay; type: functional, cell-based; details: NCI-H460, 48 h
[33] = test system: A549; test: Antitumor activity against human A549 cells xenografted in nude mouse model assessed as inhibition of tumor growth at 1.0 mg/kg, sc administered every three or four days for 4 weeks relative to control; type: functional; details: A549, 672 h
[34] = test system: KYSE-150 cell line; test: Potency index, ratio of 5-fluorouracil IC50 to test compound IC50 for antiproliferative activity against human KYSE-150 cells assessed as inhibition of cell growth incubated for 72 hrs by MTT assay; type: functional
[35] = test system: KYSE-270; test: Potency index, ratio of 5-fluorouracil IC50 to test compound IC50 for antiproliferative activity against human KYSE-270 cells assessed as inhibition of cell growth incubated for 72 hrs by MTT assay; type: functional
[36] = test system: TE-1; test: Potency index, ratio of 5-fluorouracil IC50 to test compound IC50 for antiproliferative activity against human TE-1 cells assessed as inhibition of cell growth incubated for 72 hrs by MTT assay; type: functional
[37] = test system: KYSE-510; test: Potency index, ratio of 5-fluorouracil IC50 to test compound IC50 for antiproliferative activity against human KYSE-510 cells assessed as inhibition of cell growth incubated for 72 hrs by MTT assay; type: functional
[38] = test system: ECa-109 cell line; test: Potency index, ratio of 5-fluorouracil IC50 to test compound IC50 for antiproliferative activity against human EC109 cells assessed as inhibition of cell growth incubated for 72 hrs by MTT assay; type: functional
[39] = test system: ECa-109 cell line; test: Antitumor activity against human EC109 cells xenografted in BALB/c nude mouse model assessed as inhibition of tumor growth at 60 mg/kg, po relative to control; type: functional

FC(F)(F)c1ccc(-n2cc(-c3cccc(Nc4ncnc5cc6c(cc45)OCCOCCOCCO6)c3)nn2)cc1
IC50 [1]: 3260 nM | inhibition in vivo at 25 mg/kg [2]: 25%

C#Cc1cccc(Nc2ncnc3cc4c(cc23)OCCOCCOCCO4)c1 [ICOTINIB]
IC50 [1]: > 19200 nM | inhibition in vivo at 25 mg/kg [2]: 15%

O=C1CCCC2=C1C(c1cn(-c3ccc(Cl)cc3)nn1)C1=C(CCCC1=O)N2
IC50 [3]: 153 nM | IC50 [4]: 153 nM | IC50 [5]: 153 nM | IC50 [6]: 153 nM | IC50 [7]: 153 nM | IC50 [8]: 153 nM | half-life [9]: 8.1 h | clearance [10]: 15.4 mL/min/kg | AUC(0-t) [11]: 232 ng·h/mL | T/C [12]: 0.2

COc1cc2c(c(OC)c1OC)-c1ccc(OC)c(=O)cc1[C@@H](NC(C)=O)CC2 [COLCHICINE]
IC50 [13]: 43 nM | IC50 [14]: 43 nM

COc1ccc(-c2cn(CC3(C)C=Cc4cc(N)ccc4O3)nn2)cc1 (stereo not drawn)
IC50 [15]: 2 nM | inhibition in vivo at 5 mg/kg [16]: 50% | inhibition in vivo at 5 mg/kg [17]: 80%

COCCOc1cc2ncnc(Nc3cccc(-c4cn(Cc5cc(Br)cc(Br)c5)nn4)c3)c2cc1OCCOC
IC50 [18]: 3310 nM | IC50 [19]: 3310 nM | IC50 [20]: 3310 nM | IC50 [13]: 3310 nM | inhibition in vivo at 25 mg/kg [21]: 90% | inhibition in vivo at 25 mg/kg [22]: 64%

Cc1nnn(C)c1-c1cnc2c3ccc(C(C)(C)O)cc3n([C@H](c3ccccc3)C3CCOCC3)c2c1 [EZOBRESIB]
IC50 [23]: 6.57 nM | IC50 [24]: 4.97 nM

O=C1/C(=C/c2ccccc2F)CN(Cc2cn(Cc3ccc(F)cc3)nn2)C/C1=C\c1ccccc1F
IC50 [25]: 2100 nM | IC50 [26]: 3100 nM | inhibition in vivo at 5 mg/kg [27]: 80%

O=c1[nH]cc(F)c(=O)[nH]1 [FLUOROURACIL]
IC50 [28]: 7730 nM | inhibition in vivo at 20 mg/kg [29]: 64.7% | IC50 [30]: 26300 nM

COc1ccc2c(c1)OCC(=O)N2Cc1cn(Cc2ccccc2)nn1
IC50 [31]: < 8000 nM | IC50 [32]: < 8000 nM | inhibition in vivo at 1 mg/kg [33]: 60%

COc1cnc(Cn2cc(CNC(=O)c3c(F)c(F)c(F)c(F)c3F)nn2)c(OC)c1
IC50 [28]: 830 nM | Ratio IC50 [34]: 3.1 | Ratio IC50 [35]: 3.1 | Ratio IC50 [36]: 3.1 | Ratio IC50 [37]: 3.1 | Ratio IC50 [38]: 3.1 | inhibition in vivo at 60 mg/kg [39]: 60%
